According to patent US10227323B2, “Glucosylceramide synthase inhibitors for the treatment of diseases” (BIOMARIN PHARMACEUTICAL INC., priority 2013, dated 2019):

The compounds below were run against T1, GCS (Canis lupus familiaris, UniProt A0A8I3MXG6) (assay: Assay 1: GCS Enzymatic Assay (MDCK cell lysate, C6-NBD-Ceramide, LC/MS)). Conditions: Table 1; MDCK cell lysate; read-out: IC50 (nM) generated from Assay 1.
T1 sequence (A0A8I3MXG6 1-394): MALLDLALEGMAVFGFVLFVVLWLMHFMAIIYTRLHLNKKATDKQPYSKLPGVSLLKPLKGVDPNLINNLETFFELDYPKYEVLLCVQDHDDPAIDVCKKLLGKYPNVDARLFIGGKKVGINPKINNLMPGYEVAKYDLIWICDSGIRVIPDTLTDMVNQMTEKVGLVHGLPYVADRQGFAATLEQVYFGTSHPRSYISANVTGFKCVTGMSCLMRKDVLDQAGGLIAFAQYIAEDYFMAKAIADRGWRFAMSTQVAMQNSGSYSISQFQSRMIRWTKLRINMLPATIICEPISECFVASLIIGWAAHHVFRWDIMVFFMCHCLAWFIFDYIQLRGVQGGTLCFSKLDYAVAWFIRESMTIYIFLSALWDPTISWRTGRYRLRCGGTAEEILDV
Type: biochemical, canine
Procedure, shortened: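 LC/MS/MS measurement of glucosylceramide and NBD-ceramide after a 1 h, 37 °C reaction with 100 μM UDP-glucose and 10 μM C6-NBD-ceramide gave IC50s or percent inhibition.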

Row | SMILES | IC50 [nM]
1 | O=C(N[C@H](CN1CCCC1)[C@H](O)c1ccc2c(c1)OCCO2)C(F)(F)Cc1ccc2ccccc2c1 [Compound 17, N-((1R,2R)-1-(2,3-dihydrobenzo[b][1,4]dioxin-6-yl)-1-hydroxy-3-(pyrrolidin-1-yl)propan-2-yl)-2,2-difluoro-3-(naphthalen-2-yl)propanamide] | 50 to 5000
2 | O=C(N[C@H](CN1CCCC1)[C@H](O)c1ccc2c(c1)OCCO2)C(=O)C1Cc2ccccc2C1 [Compound 70, 2-(2,3-dihydro-1H-inden-2-yl)-N-((1R,2R)-1-(2,3-dihydrobenzo[b][1,4]dioxin-6-yl)-1-hydroxy-3-(pyrrolidin-1-yl)propan-2-yl)-2-oxoacetamide] | < 50

Same assay, conditions: Table 1; values marked *; MDCK cell lysate

Row | SMILES | % inhibition generated from Assay 1
3 | O=C(N[C@H](CN1CCCC1)[C@@H](O)c1cc2c(cc1F)OCCO2)C(F)(F)c1cc2cc(Cl)ccc2o1 [Compound 33A, 2-(5-chlorobenzofuran-2-yl)-2,2-difluoro-N-((1S,2R)-1-(7-fluoro-2,3-dihydrobenzo[b][1,4]dioxin-6-yl)-1-hydroxy-3-(pyrrolidin-1-yl)propan-2-yl)acetamide] | B* (the compound had a % inhibition of greater than or equal to about 3% but less than about 50%)
4 | O=C(N[C@H](CN1CCCC1)[C@@H](O)c1ccc(OC2CC2)c(Cl)c1)C(F)(F)c1cc2cc(Cl)ccc2o1 [Compound 44H, N-((1S,2R)-1-(3-chloro-4-cyclopropoxyphenyl)-1-hydroxy-3-(pyrrolidin-1-yl)propan-2-yl)-2-(5-chlorobenzofuran-2-yl)-2,2-difluoroacetamide] | B* (the compound had a % inhibition of greater than or equal to about 3% but less than about 50%)

Same assay, conditions: Table 2; data marked by *

Row | SMILES | % inhibition generated from Assay 1
5 | O=C(N[C@H](CN1CCCC1)[C@H](O)c1ccc(OC2CC2)c(Cl)c1)C(F)(F)c1ccc(-c2ccc(F)cc2)nc1 [Compound 247, N-((1R,2R)-1-(3-chloro-4-cyclopropoxyphenyl)-1-hydroxy-3-(pyrrolidin-1-yl)propan-2-yl)-2,2-difluoro-2-(6-(4-fluorophenyl)pyridin-3-yl)acetamide] | A* (the compound had a % inhibition of a percent inhibition of greater than or equal to about 50%)
6 | O=C(CCc1ccc2ccccc2c1)C(=O)N[C@H](CN1CCCC1)[C@H](O)c1ccc(OC2CC2)c(Cl)c1 [Compound 147, N-((1R,2R)-1-(3-chloro-4-cyclopropoxyphenyl)-1-hydroxy-3-(pyrrolidin-1-yl)propan-2-yl)-4-(naphthalen-2-yl)-2-oxobutanamide] | A* (the compound had a % inhibition of a percent inhibition of greater than or equal to about 50%)
7 | O=C(N[C@H](CN1CCCC1)[C@H](O)c1ccc(OC2CC2)c(Cl)c1)C(=O)c1ccc(-c2ccc(F)cc2)s1 [Compound 219, N-((1R,2R)-1-(3-chloro-4-cyclopropoxyphenyl)-1-hydroxy-3-(pyrrolidin-1-yl)propan-2-yl)-2-(5-(4-fluorophenyl)thiophen-2-yl)-2-oxoacetamide] | A* (the compound had a % inhibition of a percent inhibition of greater than or equal to about 50%)
8 | O=C(N[C@H](CN1CCCC1)[C@H](O)c1ccc2c(c1)OCCO2)C(F)(F)c1ccc(-c2ccccn2)cc1 [Compound 186, N-((1R,2R)-1-(2,3-dihydrobenzo[b][1,4]dioxin-6-yl)-1-hydroxy-3-(pyrrolidin-1-yl)propan-2-yl)-2,2-difluoro-2-(4-(pyridin-2-yl)phenyl)acetamide] | A* (the compound had a % inhibition of a percent inhibition of greater than or equal to about 50%)
9 | CN1CCC(Oc2ccc([C@@H](O)[C@@H](CN3CCCC3)NC(=O)C(F)(F)c3cc4cc(Cl)ccc4o3)cc2Cl)CC1 [Compound 123, N-((1R,2R)-1-(3-chloro-4-((l-methylpiperidin-4-yl)oxy)phenyl)-1-hydroxy-3-(pyrrolidin-1-yl)propan-2-yl)-2-(5-chlorobenzofuran-2-yl)-2,2-difluoroacetamide] | A* (the compound had a % inhibition of a percent inhibition of greater than or equal to about 50%)

Same assay, conditions: Table 2; data without asterisk; read-out: IC50 (nM) generated from Assay 1

Row | SMILES | IC50 [nM]
10 | O=C(N[C@H](CN1CCCC1)[C@H](O)c1cc(F)c2c(c1)OCCO2)C(=O)c1ccc(-c2ccc(C3CC3)cc2)cc1 [Compound 371, 2-(4′-cyclopropyl-[1,1′-biphenyl]-4-yl)-N-((1R,2R)-1-(8-fluoro-2,3-dihydrobenzo[b][1,4]dioxin-6-yl)-1-hydroxy-3-(pyrrolidin-1-yl)propan-2-yl)-2-oxoacetamide] | < 50
11 | O=C(N[C@H](CN1CCCC1)[C@H](O)c1ccc(OC2CC2)c(Cl)c1)/C(=N/O)c1ccc2cc(Cl)ccc2c1 [Compound 173, (E)-N-((1R,2R)-1-(3-chloro-4-cyclopropoxyphenyl)-1-hydroxy-3-(pyrrolidin-1-yl)propan-2-yl)-2-(6-chloronaphthalen-2-yl)-2-(hydroxyimino)acetamide] | < 50
12 | O=C(N[C@H](CN1CCCC1)[C@H](O)c1ccc(N2CCOCC2)c(Cl)c1)C(F)(F)c1cc2cc(Cl)ccc2o1 [Compound 127, N-((1R,2R)-1-(3-chloro-4-morpholinophenyl)-1-hydroxy-3-(pyrrolidin-1-yl)propan-2-yl)-2-(5-chlorobenzofuran-2-yl)-2,2-difluoroacetamide] | 50 to 5000
13 | CC(C)n1ccc2ccc(-c3ccc(C(=O)C(=O)N[C@H](CN4CCCC4)[C@H](O)c4cc(F)c5c(c4)OCCO5)cc3)cc21 [Example 345, N-((1R,2R)-1-(8-fluoro-2,3-dihydrobenzo[b][1,4]dioxin-6-yl)-1-hydroxy-3-(pyrrolidin-1-yl)propan-2-yl)-2-(4-(1-isopropyl-1H-indol-6-yl)phenyl)-2-oxoacetamide] | < 50
14 | O=C(N[C@H](CN1CCCC1)[C@H](O)c1ccc(OC2CC2)c(Cl)c1)C(=O)c1ccc(-c2ccc(C(F)(F)F)cc2)cc1 [Example 274, N-((1R,2R)-1-(3-chloro-4-cyclopropoxyphenyl)-1-hydroxy-3-(pyrrolidin-1-yl)propan-2-yl)-2-oxo-2-(4′-(trifluoromethyl)-[1,1′-biphenyl]-4-yl)acetamide] | < 50
15 | O=C(N[C@H](CN1CCC1)[C@H](O)c1cc(F)c2c(c1)OCCO2)/C(CCc1ccc2cc(F)ccc2c1)=N/O [Compound 118, (E)-N-((1R,2R)-3-(azetidin-1-yl)-1-(8-fluoro-2,3-dihydrobenzo[b][1,4]dioxin-6-yl)-1-hydroxypropan-2-yl)-4-(6-fluoronaphthalen-2-yl)-2-(hydroxyimino)butanamide] | 50 to 5000
16 | O=C(N[C@H](CN1CCCC1)[C@H](O)c1cc(F)c2c(c1)OCCO2)C(=O)c1ccc(-c2ccc3cnoc3c2)cc1 [Example 280, 2-(4-(benzo[d]isoxazol-6-yl)phenyl)-N-((1R,2R)-1-(8-fluoro-2,3-dihydrobenzo[b][1,4]dioxin-6-yl)-1-hydroxy-3-(pyrrolidin-1-yl)propan-2-yl)-2-oxoacetamide] | < 50
17 | O=C(N[C@H](CN1CCCC1)[C@H](O)c1cc(F)c2c(c1)OCCO2)C(F)(F)CCc1ccc2ccccc2c1 [Compound 109, 2,2-difluoro-N-((1R,2R)-1-(8-fluoro-2,3-dihydrobenzo[b][1,4]dioxin-6-yl)-1-hydroxy-3-(pyrrolidin-1-yl)propan-2-yl)-4-(naphthalen-2-yl)butanamide] | < 50
18 | CC(C)n1cnc2cc(-c3ccc(C(=O)C(=O)N[C@H](CN4CCCC4)[C@H](O)c4ccc(OC5CC5)c(Cl)c4)cc3)ccc21 [Example 271, N-((1R,2R)-1-(3-chloro-4-cyclopropoxyphenyl)-1-hydroxy-3-(pyrrolidin-1-yl)propan-2-yl)-2-(4-(1-isopropyl-1H-benzo[d]imidazol-5-yl)phenyl)-2-oxoacetamide] | < 50
19 | O=C(N[C@H](CN1CCCC1)[C@H](O)c1cc(F)c2c(c1)OCCO2)/C(=N/O)c1cc2cc(Cl)ccc2o1 [Compound 104, (E)-2-(5-chlorobenzofuran-2-yl)-N-((1R,2R)-1-(8-fluoro-2,3-dihydrobenzo[b][1,4]dioxin-6-yl)-1-hydroxy-3-(pyrrolidin-1-yl)propan-2-yl)-2-(hydroxyimino)acetamide] | < 50
20 | O=C(N[C@H](CN1CCC1)[C@H](O)c1cc(F)c2c(c1)OCCO2)/C(CCc1ccc2ccccc2c1)=N/O [Compound 141, (E)-N-((1R,2R)-3-(azetidin-1-yl)-1-(8-fluoro-2,3-dihydrobenzo[b][1,4]dioxin-6-yl)-1-hydroxypropan-2-yl)-2-(hydroxyimino)-4-(naphthalen-2-yl)butanamide] | < 50
21 | O=C(N[C@H](CN1CCCC1)[C@H](O)c1ccc(OC2CC2)c(Cl)c1)C(=O)c1ccc(-c2ccc(F)cc2)cn1 [Example 264, N-((1R,2R)-1-(3-chloro-4-cyclopropoxyphenyl)-1-hydroxy-3-(pyrrolidin-1-yl)propan-2-yl)-2-(5-(4-fluorophenyl)pyridin-2-yl)-2-oxoacetamide] | < 50
22 | CN(C(=O)C(=O)c1cc2ccc(Cl)cc2s1)[C@H](CN1CCCC1)[C@H](O)c1ccc(OC2CC2)c(F)c1 [Compound 383, 2-(6-chlorobenzo[b]thiophen-2-yl)-N-((1R,2R)-1-(4-cyclopropoxy-3-fluorophenyl)-1-hydroxy-3-(pyrrolidin-1-yl)propan-2-yl)-N-methyl-2-oxoacetamide] | < 50
23 | O=C(N[C@H](CN1CCCC1)[C@H](O)c1ccc(OCC(F)(F)F)nc1)C(F)(F)CCc1ccc2ccccc2c1 [Compound 108, 2,2-difluoro-N-((1R,2R)-1-hydroxy-3-(pyrrolidin-1-yl)-1-(6-(2,2,2-trifluoroethoxy)pyridin-3-yl)propan-2-yl)-4-(naphthalen-2-yl)butanamide] | 50 to 5000
